Measured values reported in patent US20160251342A1, “ALDEHYDE DERIVATIVE OF SUBSTITUTED OXAZOLIDINONES” (WANBURY LTD., priority 2012, published 2016).

How the values were obtained:
[1] = In vitro stability in rat plasma (LC-MS); format: in vitro ADME
Description: (§1) The final concentration of the test compound in the assay is 5 micromolar. […] C. The 100 microlitres of aliquot at time point was removed and diluted with ice cold acetonitrile containing IS (200 µL) to stop the reactions. Samples are centrifuged at 10,000 RPM for 5 minutes to precipitate proteins. Supernatants are transferred to micro centrifuge tubes and stored at −20° C. for analysis of LC/MS/MS. The percent parent remaining of the test substance is calculated as ratio of peak area at each time point to peak area ratio at zero min, multiplied by 100.
(§2) API 4000, ESI Agilent 1100 column: Gemini Nx 100 mm×4.6 mm 5.μ; column temperature: 30° C.; eluent A: 0.1% formic acid in water, eluent B: acetonitrile; gradient: 0-2.5 min 95% A, 5% B; 2.5-2.6 min 5% A, 95% B; 2.6-4.2 min 95% A, 5% B; flow rate: 0.8 ml/min; ESI. Q1:464.098, Q3:144.255

plasma protein = assay: Plasma protein binding (dialysis), rat; format: in vitro ADME
Description: A compound solution (1 mM in DMSO) (5 μL), according to the invention is added to the respective plasma matrices of rat or human or mouse (1 ml).
Add 150 μl of phosphate buffer to receiving side of the dialysis well. […] Precipitate with Acetonitrile and dilute samples prior to analysis in 1.5 ml polypropylene tubes. Remove 50 μl from the sample side of dialysis well and add 50 μl of phosphate buffer+300 μl of acetonitrile containing IS. Remove 50 μl from the buffer side of the dialysis well and add 50 μl of respective matrix plasma+300 μl of ACN. Then vortexed and centrifuged for 5 min, and supernatant is taken and injected into LCMS.
Different test concentration ranging from 0.1 μM to 20 μM are made in methanol:water (90:10). Test solutions are added to the premixed matrix containing plasma:phosphate buffer (50:50). Precipitate with 300 μl of ice cold acetonitrile containing IS, vortexes and centrifuged. Supernatant is taken and injected into LCMS.
Percentage of plasma protein binding was obtained via Equation (2): % Fraction unbound=(concentration on the buffer side/concentration on the sample side)*100

[2] = Intravenous and oral pharmacokinetics in Wistar rats; format: in vivo; settings: after i.v. administration, first measurement point
Description: On the day before administration of the substance, a catheter for obtaining blood is implanted in the jugular vein of the experimental animals (male Wistar rats, body weight 200-250 g) under Isofluran® anesthesia.
Blood samples (8-12 time points) are taken through the catheter sequentially over the course of 24 h after administration of the substance. The administration volume is 10 ml/kg for oral and 1 ml/kg for IV in male Wistar rats. Intravenous administration is via a formulation of 2% N—N Dimethyl acetamide/ethanol 10%/PEG400(30%)/water for IV injection (58%) and via Tween80/PEG400/sterile water in the case of oral administration. […]
Plasma is obtained by centrifuging the samples in heparinized tubes. […] After centrifugation, compound formula (B) and, where appropriate, known cleavage products of the compound formula (B) in the supernatant are determined quantitatively using a suitable LC/MS-MS method.
The measured plasma concentrations are used to calculate pharmacokinetic parameters of the test substance and of the active ingredient compound (A) liberated there from, such as AUC, Cmax, T½ (half-life) and CL (clearance). […]
The plasma concentration/time plots determined are used to calculate the pharmacokinetic parameters such as AUC, Cmax, MRT (mean residence time), t½ (half life) and CL (clearance) employing the validated pharmacokinetic calculation programs. […]

[3] = In vitro stability in human plasma (LC-MS); format: in vitro ADME
Description: as §1, §2

Amount of test product detected (conversion to rivaroxaban from zero min) [1]: min. Neglible
Observation: amount of test product (plasma protein): Not quantificable amount of test
Observation: formed Rivaroxaban bound to plasma protein (plasma protein; phrase continues 'High bound' in next line): Rivaroxaban found to be moderate-
Detectability of unchanged test substance in plasma [2]: no longer detectable
Amount of test product detected (conversion to rivaroxaban from zero min) [3]: Neglible
SMILES: O=CN(C[C@H]1CN(c2ccc(N3CCOCC3=O)cc2)C(=O)O1)C(=O)c1ccc(Cl)s1 [compound formula (B), 5-chloro-N-formyl-N-({(5S)-2-oxo-3-[4-(3-oxomorpholin-4-yl)phenyl]-1,3-oxazolidin-5-yl}methyl)thiophene-2-carboxamide]
